In PubChem BioAssay AID1845205 (Molecular Pharmacology Branch, DTP, NCI, 2023):

Tested on: MPNST multicellular tumor spheroids, viability % test/control
Assay: Anticancer human tumor MPNST cell line growth inhibition;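 note: spheroids exposed to agents for seven days after three days of growth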;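 for viability, T/C: luminescence signal used as surrogate for viable cell amount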
Details: for IC50: curve of first compound; for viability, T/C: stronger effect = lower value
Excerpt: Multicellular complex tumor spheroid response to DNA repair inhibitors in combination with DNA-damaging drugs
This study explores the anticancer activities of DNA-damaging drugs and inhibitors of DNA damage repair, both as single agents and in combinations. Complex tumor spheroids comprised of malignant cells, endothelial cells and mesenchymal stem cells served as an in vitro model for human solid tumors. This model system incorporates physiologically relevant features and patient-derived or established malignant cell lines with clinically relevant genetic alterations from many tumor types. Twenty-six patient-derived or established malignant cell lines were evaluated representing sarcoma, melanoma, small cell lung cancer (SCLC), non-small cell lung cancer (NSCLC), as well as bladder, ovarian and pancreatic cancers. The concentration ranges selected for each drug and investigational agent were based upon clinically achievable concentrations if the clinical Cmax of the agent was known.
Compounds. The drugs and compounds olaparib (NSC753686), talazoparib (NSC767125), berzosertib (NSC777718), elimusertib (NSC800525), nedisertib (NSC802822), VX-984 (NSC792969), AZD-1390 (NSC803789), temozolomide (NSC362856), topotecan (NSC609699), trabectedin (NSC813783), staurosporine (NSC755774), and gemcitabine (NSC613327) were obtained from the National Cancer Institute (NCI) Developmental Therapeutics Program Chemical Repository. The FDA-approved anticancer drug set is available from the Developmental Therapeutics Program at https://dtp.cancer.gov/organization/dscb/obtaining/available_plates.htm. […] The stock solutions were prepared in dimethyl sulfoxide (DMSO, Sigma-Aldrich, St. Louis, MO, cat. D2650) at 400-fold the tested concentration and stored at -70 degrees C. Prior to their use, the stock solutions were diluted in fresh medium and the final DMSO concentration in the assay was 0.25% (v/v). All drugs and investigational agents were tested over a range starting from a high concentration at or near the clinical Cmax and decreasing in half-log increments. If the clinical Cmax for an agent had not been determined, the highest concentration tested was 10 microM.
Cell Lines. The patient-derived cancer cell (PDC) lines: 156681-154-R-J1-PDC, 283228-195-R-J1-PDC, 287954-098-R-J1-PDC, 292921-168-R-J2-PDC, 349418-098-R-PDC, 425362-245-T-J1-PDC, 556581-035-R-J1-PDC, and BL0293-F563-PDC were received from the NCI Patient-Derived Models Repository (PDMR, https://pdmr.cancer.gov). The established cell lines HS-SY-2 (RRID:CVCL_8719), MPNST, and SYO-1 (RRID:CVCL_7146) were obtained from the Sloan Kettering Institute. The alveolar soft parts sarcoma cell line ASPS-1 (RRID:CVCL_S738) was established at the NCI and grown from internal seed stocks. The following established cell lines were purchased from the American Type Culture Collection (ATCC, Manassas, VA): G-401 (ATCC, cat. CRL-1441, RRID:CVCL_0270), SW982 (ATCC, cat. HTB-93, RRID:CVCL_1734), VA-ES-BJ (ATCC, cat. CRL-2138, RRID:CVCL_1785), NCI-H719 (ATCC, cat. CRL-5837, RRID:CVCL_1582), NCI-H196 (ATCC, cat. CRL-5823, RRID:CVCL_1509), NCI-H841 (ATCC, cat. CRL-5845, RRID:CVCL_1595), NCI-H1618 (ATCC, cat. CRL-5879, RRID:CVCL_1480), NCI-H1876 (ATCC, cat. CRL-5902, RRID:CVCL_1503), DMS 114 (ATCC, cat. CRL-2066; RRID:CVCL_1174), NCI-H211 (ATCC, cat. CRL-5824; RRID:CVCL_1529), and SW 1271 (ATCC, cat. CRL-2177, RRID:CVCL_1716). The small cell lung cancer cell line COR-L88 was purchased from Sigma-Aldrich (cat. 92031917-1VL, RRID:CVCL_1141). The non-small cell lung cancer cell lines NCI-H226 (RRID:CVCL_1544) and NCI-H322M (RRID:CVCL_1557) were established at the NCI and grown from internal seed stocks. Pooled donor human umbilical vein endothelial cells (HUVEC, Lonza, cat. CC-2519) and human mesenchymal stem cells (hMSC, Lonza, cat. PT-2501) were purchased from Lonza (Walkersville, MD).
Cell Culture. All cells were maintained in an incubator at 37 degrees C and 5% CO2 with 95% humidity. […]

[1] = second compound 0.003 µM, first compound 0.00949 µM
[2] = second compound 0.003 µM, first compound 0.03 µM
[3] = second compound 0.003 µM, first compound 0.0949 µM
[4] = second compound 0.003 µM, first compound 0.3 µM
[5] = second compound 0.003 µM, first compound 0.949 µM
[6] = second compound 0.003 µM, first compound 3 µM
[7] = second compound 0.00949 µM, first compound 0.00949 µM
[8] = second compound 0.00949 µM, first compound 0.03 µM
[9] = second compound 0.00949 µM, first compound 0.0949 µM
[10] = second compound 0.00949 µM, first compound 0.3 µM
[11] = second compound 0.00949 µM, first compound 0.949 µM
[12] = second compound 0.00949 µM, first compound 3 µM
[13] = second compound 0.03 µM, first compound 0.00949 µM
[14] = second compound 0.03 µM, first compound 0.03 µM
[15] = second compound 0.03 µM, first compound 0.0949 µM
[16] = second compound 0.03 µM, first compound 0.3 µM
[17] = second compound 0.03 µM, first compound 0.949 µM
[18] = second compound 0.03 µM, first compound 3 µM
[19] = second compound 0.0949 µM, first compound 0.00949 µM
[20] = second compound 0.0949 µM, first compound 0.03 µM
[21] = second compound 0.0949 µM, first compound 0.0949 µM
[22] = second compound 0.0949 µM, first compound 0.3 µM
[23] = second compound 0.0949 µM, first compound 0.949 µM
[24] = second compound 0.0949 µM, first compound 3 µM
[25] = second compound 0.3 µM, first compound 0.00949 µM
[26] = second compound 0.3 µM, first compound 0.03 µM
[27] = second compound 0.3 µM, first compound 0.0949 µM
[28] = second compound 0.3 µM, first compound 0.3 µM
[29] = second compound 0.3 µM, first compound 0.949 µM
[30] = second compound 0.3 µM, first compound 3 µM

SMILES	IC50 (second compound 0.003 µM) [nM]	IC50 (second compound 0.00949 µM) [nM]	IC50 (second compound 0.03 µM) [nM]	IC50 (second compound 0.0949 µM) [nM]	IC50 (second compound 0.3 µM) [nM]	viability, T/C [1] [%]	viability, T/C [2] [%]	viability, T/C [3] [%]	viability, T/C [4] [%]	viability, T/C [5] [%]	viability, T/C [6] [%]	viability, T/C [7] [%]	viability, T/C [8] [%]	viability, T/C [9] [%]	viability, T/C [10] [%]	viability, T/C [11] [%]	viability, T/C [12] [%]	viability, T/C [13] [%]	viability, T/C [14] [%]	viability, T/C [15] [%]	also measured
CNCc1ccc(-c2cc(-c3nc(-c4ccc(S(=O)(=O)C(C)C)cc4)cnc3N)on2)cc1 + CC[C@@]1(O)C(=O)OCc2c1cc1n(c2=O)Cc2cc3c(CN(C)C)c(O)ccc3nc2-1	> 3000	> 3000	> 3000	> 3000	< 9.49	104	99.3	71.8	61.4	64.3	61.7	75.6	74.3	59.7	58	60.3	66.6	61.9	55.1	53.8	viability, T/C [16]: 57.1%; viability, T/C [17]: 63.7%; viability, T/C [18]: 64.9%; viability, T/C [19]: 57.7%; viability, T/C [20]: 54.8%; viability, T/C [21]: 56.8%; viability, T/C [22]: 64.7%; viability, T/C [23]: 58.1%; viability, T/C [24]: 70.7%; viability, T/C [25]: 46.1%; viability, T/C [26]: 45%; viability, T/C [27]: 48.8%; viability, T/C [28]: 50%; viability, T/C [29]: 55.5%; viability, T/C [30]: 52.7%
Cc1sc2c(c1C)C(c1ccc(Cl)cc1)=NC(CC(=O)Nc1ccc(O)cc1)c1nnc(C)n1-2 (stereo not given) + CC[C@@]1(O)C(=O)OCc2c1cc1n(c2=O)Cc2cc3c(CN(C)C)c(O)ccc3nc2-1	1860	> 3000	2500	1210	10.6	113	98.3	85.1	66.9	51.9	48.4	82	85.7	81.8	62.4	54.5	50.5	66.8	64.1	62	viability, T/C [16]: 58.1%; viability, T/C [17]: 51.9%; viability, T/C [18]: 49.4%; viability, T/C [19]: 58.4%; viability, T/C [20]: 60.1%; viability, T/C [21]: 60.4%; viability, T/C [22]: 56.3%; viability, T/C [23]: 48.8%; viability, T/C [24]: 45.4%; viability, T/C [25]: 50.6%; viability, T/C [26]: 47.8%; viability, T/C [27]: 47.2%; viability, T/C [28]: 44.9%; viability, T/C [29]: 37.9%; viability, T/C [30]: 33.1%
Cn1ncnc1[C@H]1c2n[nH]c(=O)c3cc(F)cc(c23)N[C@@H]1c1ccc(F)cc1 + CC[C@@]1(O)C(=O)OCc2c1cc1n(c2=O)Cc2cc3c(CN(C)C)c(O)ccc3nc2-1	> 3000	> 3000	> 3000	> 3000	< 9.49	90.6	77.2	72.3	68.7	62.2	60.1	65	65.6	60.5	63.9	59.4	59.9	56.7	59	61.1	viability, T/C [16]: 59.7%; viability, T/C [17]: 64%; viability, T/C [18]: 61.1%; viability, T/C [19]: 59.7%; viability, T/C [20]: 55.8%; viability, T/C [21]: 58.8%; viability, T/C [22]: 61.6%; viability, T/C [23]: 59.1%; viability, T/C [24]: 55.6%; viability, T/C [25]: 49.5%; viability, T/C [26]: 48.5%; viability, T/C [27]: 49.2%; viability, T/C [28]: 52.7%; viability, T/C [29]: 53%; viability, T/C [30]: 46.3%
